Source: PubChem BioAssay AID1918944 (Molecular Pharmacology Branch, DTP, NCI, 2023)
Where “and” joins values, the source holds several entries; their conditions need not be identical. Equal values may be shown once.

System: 786-0 complex spheroid viability
Assay: Anticancer human tumor 786-0 cell line growth inhibition;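 note: spheroids exposed to agents for seven days before readout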
Details: for viability, T/C: stronger effect = lower value
Outline: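 Multicellular complex spheroids of tumor cells with human endothelial cells (HUVEC) and mesenchymal stem cells; the LSD1 inhibitor iadademstat was combined with standard-of-care or investigational agents. Top concentration at or near clinical Cmax, half-log dilutions; final DMSO ≤0.25%.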

[1] = curve of first compound, second compound 0.1 µM
[2] = curve of first compound, second compound 0.316 µM
[3] = curve of first compound, second compound 1 µM
[4] = curve of first compound, second compound 3.16 µM
[5] = curve of first compound, second compound 10 µM

In the case of `Nc1ccccc1NC(=O)c1ccc(CNC(=O)OCc2cccnc2)cc1` + NC1CCC(NC2CC2c2ccccc2)CC1, the IC50 [1] is reported as 1670 nM, the IC50 [2] is reported as 1550 nM and the IC50 [3] is reported as 1540 nM. It also gave an IC50 [4] of 1280 nM, an IC50 [5] of 756 nM and a viability, T/C (second compound 0.1 µM, first compound 0.00949 µM) of 115%. For the same molecule, the viability, T/C (second compound 0.1 µM, first compound 0.03 µM) was 121%, the viability, T/C (second compound 0.1 µM, first compound 0.0949 µM) was 113% and the viability, T/C (second compound 0.1 µM, first compound 0.3 µM) was 110%. For the same molecule, the viability, T/C (second compound 0.1 µM, first compound 0.949 µM) was 80.9%, the viability, T/C (second compound 0.1 µM, first compound 3 µM) was 17.7% and the viability, T/C (second compound 0.316 µM, first compound 0.00949 µM) was 123%. For the same molecule, the viability, T/C (second compound 0.316 µM, first compound 0.03 µM) was 121%, the viability, T/C (second compound 0.316 µM, first compound 0.0949 µM) was 119% and the viability, T/C (second compound 0.316 µM, first compound 0.3 µM) was 109%. For the same molecule, the viability, T/C (second compound 0.316 µM, first compound 0.949 µM) was 74.2%, the viability, T/C (second compound 0.316 µM, first compound 3 µM) was 17.2% and the viability, T/C (second compound 1 µM, first compound 0.00949 µM) was 116%. It also gave a viability, T/C (second compound 1 µM, first compound 0.03 µM) of 116%, a viability, T/C (second compound 1 µM, first compound 0.0949 µM) of 112% and a viability, T/C (second compound 1 µM, first compound 0.3 µM) of 103%. The viability, T/C (second compound 1 µM, first compound 0.949 µM) was 74%, the viability, T/C (second compound 1 µM, first compound 3 µM) was 16.7% and the viability, T/C (second compound 3.16 µM, first compound 0.00949 µM) was 107%. It also gave a viability, T/C (second compound 3.16 µM, first compound 0.03 µM) of 105%, a viability, T/C (second compound 3.16 µM, first compound 0.0949 µM) of 103% and a viability, T/C (second compound 3.16 µM, first compound 0.3 µM) of 93.6%. For the same molecule, the viability, T/C (second compound 3.16 µM, first compound 0.949 µM) was 62%, the viability, T/C (second compound 3.16 µM, first compound 3 µM) was 15.1% and the viability, T/C (second compound 10 µM, first compound 0.00949 µM) was 85.5%. It also gave a viability, T/C (second compound 10 µM, first compound 0.03 µM) of 82.7%, a viability, T/C (second compound 10 µM, first compound 0.0949 µM) of 86.1% and a viability, T/C (second compound 10 µM, first compound 0.3 µM) of 78.1%. It also gave a viability, T/C (second compound 10 µM, first compound 0.949 µM) of 43% and a viability, T/C (second compound 10 µM, first compound 3 µM) of 9.91%.
With `CC1COCCN1c1cc(C2(S(C)(=N)=O)CC2)nc(-c2ccnc3[nH]ccc23)n1` (configuration not stated) the viability, T/C (compound 0.0316 µM) was 101% and 103%, the viability, T/C (compound 0.1 µM) was 99.8% and 99.9% and the viability, T/C (compound 0.316 µM) was 91.4% and 99%. For the same molecule, the viability, T/C (compound 1 µM) was 46.4% and 56.3%, the viability, T/C (compound 3.16 µM) was 24.9% and 32.6% and the viability, T/C (compound 10 µM) was 12.3% and 18.9%. The IC50 (curve of compound) was 954 nM and 1380 nM.
With `CC(C)c1c(-c2ccccc2)nc2c(C#N)c[nH]n2c1=O` + NC1CC1c1ccc(-c2cccc(O)c2)cc1 the IC50 [1] was over 10000 nM, the IC50 [2] was over 10000 nM and the IC50 [3] was over 10000 nM. The IC50 [4] was over 10000 nM, the IC50 [5] was over 10000 nM and the viability, T/C (second compound 0.1 µM, first compound 0.0316 µM) was 114%. For the same molecule, the viability, T/C (second compound 0.1 µM, first compound 0.1 µM) was 120%, the viability, T/C (second compound 0.1 µM, first compound 0.316 µM) was 124% and the viability, T/C (second compound 0.1 µM, first compound 1 µM) was 121%. It also gave a viability, T/C (second compound 0.1 µM, first compound 3.16 µM) of 116%, a viability, T/C (second compound 0.1 µM, first compound 10 µM) of 119% and a viability, T/C (second compound 0.316 µM, first compound 0.0316 µM) of 118%. The viability, T/C (second compound 0.316 µM, first compound 0.1 µM) was 117%, the viability, T/C (second compound 0.316 µM, first compound 0.316 µM) was 115% and the viability, T/C (second compound 0.316 µM, first compound 1 µM) was 121%. For the same molecule, the viability, T/C (second compound 0.316 µM, first compound 3.16 µM) was 119%, the viability, T/C (second compound 0.316 µM, first compound 10 µM) was 115% and the viability, T/C (second compound 1 µM, first compound 0.0316 µM) was 117%. It also gave a viability, T/C (second compound 1 µM, first compound 0.1 µM) of 121%, a viability, T/C (second compound 1 µM, first compound 0.316 µM) of 123% and a viability, T/C (second compound 1 µM, first compound 1 µM) of 118%. It also gave a viability, T/C (second compound 1 µM, first compound 3.16 µM) of 116%, a viability, T/C (second compound 1 µM, first compound 10 µM) of 113% and a viability, T/C (second compound 3.16 µM, first compound 0.0316 µM) of 113%. The viability, T/C (second compound 3.16 µM, first compound 0.1 µM) was 113%, the viability, T/C (second compound 3.16 µM, first compound 0.316 µM) was 121% and the viability, T/C (second compound 3.16 µM, first compound 1 µM) was 121%. It also gave a viability, T/C (second compound 3.16 µM, first compound 3.16 µM) of 117%, a viability, T/C (second compound 3.16 µM, first compound 10 µM) of 116% and a viability, T/C (second compound 10 µM, first compound 0.0316 µM) of 103%. For the same molecule, the viability, T/C (second compound 10 µM, first compound 0.1 µM) was 106%, the viability, T/C (second compound 10 µM, first compound 0.316 µM) was 110% and the viability, T/C (second compound 10 µM, first compound 1 µM) was 107%. For the same molecule, the viability, T/C (second compound 10 µM, first compound 3.16 µM) was 107% and the viability, T/C (second compound 10 µM, first compound 10 µM) was 113%.
